Data reported in patent US10238667B2, “Vitamin D receptor/SMAD genomic circuit gates fibrotic response” (Salk Institute for Biological Studies, priority 2013, dated 2019).

System: primary rat HSCs
Test: Microarray expression profiling of TGFβ1 and TGFβ1+1,25(OH)2D3-treated HSCs
Format: cell-based
Conditions: 24 h
Text: VDR Signaling Suppresses TGFβ-induced Pro-Fibrotic Genes. […] Euclidean clustering of both rows and columns using log2 transformed microarray expression data, n=2 per treatment group. […] Data represents the mean±SEM of at least three independent experiments performed in triplicate. Asterisks denote statistically significant differences (Student's unpaired t-test, *p<0.05, **p<0.01). HSCs were isolated from 10-week old male C57BL/6J mice and Wistar rats by in situ pronase, collagenase perfusion and single-step Histogenz gradient as previously reported (Hendriks et al., 1985; Knook et al., 1982). Isolated HSCs were cultured in DMEM (Mediatech) containing 20% FBS (Hyclone) on 6-well plates for 40 hours prior to end-point assays. Total RNA from primary rat or mouse HSCs was isolated using the RNeasy mini kit (Qiagen) according to standard protocols. RNA integrity and quality was assessed using the Agilent Bioanalyzer and prepared for hybridization to Illumina rat or mouse gene expression arrays according to standard Illumina protocols. Feature extraction was performed using the Illumina GenomeStudio software. Normalization and identification of differentially expressed genes from biological duplicates was performed using […] at http://sasquatch.ucsd.edu/vampire/.

[1] = TGFβ1 1 ng/ml ± 1,25(OH)2D3 100 nM

## C=C1/C(=C\C=C2/CCC[C@]3(C)C([C@H](C)CCCC(C)(C)O)CC[C@@H]23)C[C@@H](O)C[C@@H]1O (stereo partly drawn) [1,25(OH)2D3, 1α,25 dihydroxyvitamin D3]
TGFβ1 1 ng/ml + 1,25(OH)2D3 100 nM, Control 3963.4, TGFβ 9788.1
  LOC499078 VitD + TGFbeta AVG signal: 2325
TGFβ1 1 ng/ml + 1,25(OH)2D3 100 nM, Control 3986, TGFβ 9174
  Glipr1_predict VitD + TGFbeta AVG signal: 1894
TGFβ1 1 ng/ml + 1,25(OH)2D3 100 nM, Control 4057.3, TGFβ 7133.8
  Sh3kbp1 VitD + TGFbeta AVG signal: 1618
TGFβ1 1 ng/ml + 1,25(OH)2D3 100 nM, Control 4402.2, TGFβ 10637
  Ms4a7_predict VitD + TGFbeta AVG signal: 1708
TGFβ1 1 ng/ml + 1,25(OH)2D3 100 nM, Control 4496.5, TGFβ 12465
  LOC310190 VitD + TGFbeta AVG signal: 2594
TGFβ1 1 ng/ml + 1,25(OH)2D3 100 nM, Control 4506.5, TGFβ 5580.6
  Itgb2 VitD + TGF β Avg Signal: 4858.4
TGFβ1 1 ng/ml + 1,25(OH)2D3 100 nM, Control 4712.3, TGFβ 10527
  Nucb2 VitD + TGFbeta AVG signal: 2733
TGFβ1 1 ng/ml + 1,25(OH)2D3 100 nM, Control 4721.8, TGFβ 13843
  RT1-Ba VitD + TGFbeta AVG signal: 3390
TGFβ1 1 ng/ml + 1,25(OH)2D3 100 nM, Control 5658, TGFβ 19362
  LOC312102 VitD + TGFbeta AVG signal: 4469
TGFβ1 1 ng/ml + 1,25(OH)2D3 100 nM, Control 5856.6, TGFβ 12798
  Ptpro VitD + TGFbeta AVG signal: 2551
TGFβ1 1 ng/ml + 1,25(OH)2D3 100 nM, Control 6230.8, TGFβ 11228
  Dcir3 VitD + TGFbeta AVG signal: 1354
TGFβ1 1 ng/ml + 1,25(OH)2D3 100 nM, Control 6494.5, TGFβ 16466
  Oplah VitD + TGFbeta AVG signal: 1922
TGFβ1 1 ng/ml + 1,25(OH)2D3 100 nM, Control 8050.9, TGFβ 10104.2
  Itgb1 VitD + TGF β Avg Signal: 7987.9
TGFβ1 1 ng/ml + 1,25(OH)2D3 100 nM, Control 8370.4, TGFβ 15560.3
  Mmp14 VitD + TGF β Avg Signal: 14980.5
TGFβ1 1 ng/ml + 1,25(OH)2D3 100 nM, Control 10124.0, TGFβ 13471.4
  Timp1 VitD + TGF β Avg Signal: 9101.3
TGFβ1 1 ng/ml + 1,25(OH)2D3 100 nM, Control 10532.3, TGFβ 20216.0
  Ctgf VitD + TGF β Avg Signal: 9730.1
TGFβ1 1 ng/ml + 1,25(OH)2D3 100 nM, Control 10691.1, TGFβ 24123.0
  Col1a2 VitD + TGF β Avg Signal: 9593.3
TGFβ1 1 ng/ml + 1,25(OH)2D3 100 nM, Control 12345, TGFβ 21779
  Ms4a6b VitD + TGFbeta AVG signal: 5158
TGFβ1 1 ng/ml + 1,25(OH)2D3 100 nM, Control 16420, TGFβ 32328
  Ctsc VitD + TGFbeta AVG signal: 6319
[1]
  Bmp2 TGFb/TGFB + VitD3: 5.3 NM_017178.1 Rattus norvegicus bone
  Cacnb3 TGFb/TGFB + VitD3: 6.0 NM_012828.1 Rattus norvegicus calcium channel
  Ccl12_predicte TGFb/TGFB + VitD3: 5.5 XM_213425.2 PREDICTED: Rattus norvegicus
  Ccr5 TGFb/TGFB + VitD3: 12.9 NM_053960.2 Rattus norvegicus chemokine (C-
  Cdh1 TGFb/TGFB + VitD3: 4.4 NM_031334.1 Rattus norvegicus cadherin 1
  Chst1_predict TGFb/TGFB + VitD3: 12.7 XM_575178.1 PREDICTED: Rattus norvegicus
  Ctsc TGFb/TGFB + VitD3: 5.1 NM_017097.1 Rattus norvegicus cathepsin C
  Cysltr1 TGFb/TGFB + VitD3: 4.4 NM_053641.1 Rattus norvegicus cysteinyl
  Dcir2 TGFb/TGFB + VitD3: 4.6 XM_579146.1 PREDICTED: Rattus norvegicus
  Dcir3 TGFb/TGFB + VitD3: 8.3 XM_579150.1 PREDICTED: Rattus norvegicus
  Dsipi TGFb/TGFB + VitD3: 4.0 NM_031345.1 Rattus norvegicus delta sleep
  Emr1 TGFb/TGFB + VitD3: 5.9 XM_579174.1 PREDICTED: Rattus norvegicus
  Fchsd2_predic TGFb/TGFB + VitD3: 4.9 XM_218965.3 PREDICTED: Rattus norvegicus
  Gas7 TGFb/TGFB + VitD3: 4.9 NM_053484.1 Rattus norvegicus growth arrest
  Glipr1_predict TGFb/TGFB + VitD3: 4.8 XM_576223.1 PREDICTED: Rattus norvegicus GLI
  Hod TGFb/TGFB + VitD3: 5.1 NM_133621.2 Rattus norvegicus homeobox only
  LOC304349 TGFb/TGFB + VitD3: 7.1 XM_221990.3 PREDICTED: Rattus norvegicus
  LOC305269 TGFb/TGFB + VitD3: 4.0 XM_223309.3 PREDICTED: Rattus norvegicus
  LOC310190 TGFb/TGFB + VitD3: 4.8 XM_226886.3 PREDICTED: Rattus norvegicus
  LOC312102 TGFb/TGFB + VitD3: 4.3 XM_231461.3 PREDICTED: Rattus norvegicus
  LOC361699 TGFb/TGFB + VitD3: 3.8 XM_341982.2 PREDICTED: Rattus norvegicus
  LOC366205 TGFb/TGFB + VitD3: 6.6 XM_345441.2 PREDICTED: Rattus norvegicus
  LOC366608 TGFb/TGFB + VitD3: 4.4 XM_345665.2 PREDICTED: Rattus norvegicus
  LOC497796 TGFb/TGFB + VitD3: 5.1 XM_579296.1 PREDICTED: Rattus norvegicus
  LOC498741 TGFb/TGFB + VitD3: 6.1 XM_574019.1 PREDICTED: Rattus norvegicus
  LOC498751 TGFb/TGFB + VitD3: 5.1 XM_574030.1 PREDICTED: Rattus norvegicus
  LOC499078 TGFb/TGFB + VitD3: 4.2 XM_574362.1 PREDICTED: Rattus norvegicus
  LOC499100 TGFb/TGFB + VitD3: 3.9 XM_218456.3 PREDICTED: Rattus norvegicus
  LOC499272 TGFb/TGFB + VitD3: 4.4 XM_579937.1 PREDICTED: Rattus norvegicus
  LOC499356 TGFb/TGFB + VitD3: 11.0 XM_574669.1 PREDICTED: Rattus norvegicus
  LOC501570 TGFb/TGFB + VitD3: 4.6 XM_576974.1 PREDICTED: Rattus norvegicus
  LOC502904 TGFb/TGFB + VitD3: 6.7 XM_578406.1 PREDICTED: Rattus norvegicus
  LOC502907 TGFb/TGFB + VitD3: 9.6 XM_578409.1 PREDICTED: Rattus norvegicus
  Ly49si1 TGFb/TGFB + VitD3: 4.6 XM_579297.1 PREDICTED: Rattus norvegicus
  Ly49si2 TGFb/TGFB + VitD3: 4.6 XM_579298.1 PREDICTED: Rattus norvegicus
  Ms4a4a_predi TGFb/TGFB + VitD3: 17.7 XM_342027.1 PREDICTED: Rattus norvegicus
  Ms4a6a_predi TGFb/TGFB + VitD3: 4.5 XM_215145.3 PREDICTED: Rattus norvegicus
  Ms4a6b TGFb/TGFB + VitD3: 4.2 NM_00100697 Rattus norvegicus membrane-
  Ms4a7_predict TGFb/TGFB + VitD3: 6.2 XM_215200.2 PREDICTED: Rattus norvegicus
  Nucb2 TGFb/TGFB + VitD3: 3.9 NM_021663.2 Rattus norvegicus nucleobindin 2
  Oplah TGFb/TGFB + VitD3: 8.6 NM_053904.1 Rattus norvegicus 5-oxoprolinase
  Pcsk1 TGFb/TGFB + VitD3: 7.4 NM_017091.1 Rattus norvegicus proprotein
  Pirb TGFb/TGFB + VitD3: 5.3 NM_031713.1 Rattus norvegicus paired-Ig-like
  Ptprc TGFb/TGFB + VitD3: 4.2 NM_138507.1 Rattus norvegicus protein tyrosine
  Ptpro TGFb/TGFB + VitD3: 5.0 NM_017336.1 Rattus norvegicus protein tyrosine
  RT1-Ba TGFb/TGFB + VitD3: 4.1 XM_579226.1 PREDICTED: Rattus norvegicus
  Sh3kbp1 TGFb/TGFB + VitD3: 4.4 NM_053360.2 Rattus norvegicus SH3-domain
  Slamf9_predic TGFb/TGFB + VitD3: 4.2 XM_213932.2 PREDICTED: Rattus norvegicus
  Stab1_predict TGFb/TGFB + VitD3: 5.6 XM_214279.3 PREDICTED: Rattus norvegicus
  Tmem26_pred TGFb/TGFB + VitD3: 3.8 XM_228108.3 PREDICTED: Rattus norvegicus
